Results: patent US20080300243A1, “Amide Derivatives as Ion-Channel Ligands and Pharmaceutical Compositions and Methods of Using the Same” (priority 2005, published 2008)

Experiments:
[1] = Half-life in human liver microsomes (HLM); format: in vitro ADME; conditions: 1 μM compound, 0.78 mg/mL HLM, 37° C., NADPH; for half-life at 1 μM: human, human liver microsomes (HLM, HL101), pH 7.4
Experimental: Test compounds (1 μM) were incubated with 3.3 mM MgCl2 and 0.78 mg/mL HLM (HL101) in 100 mM potassium phosphate buffer (pH 7.4) at 37° C. on the 96-deep well plate. The reaction mixture was split into two groups, a non-P450 and a P450 group. NADPH was only added to the reaction mixture of the P450 group. An aliquot of samples of P450 group was collected at 0, 10, 30, and 60 min time point, where 0 min time point indicated the time when NADPH was added into the reaction mixture of P450 group. An aliquot of samples of non-P450 group was collected at −10 and 65 min time point. Collected aliquots were extracted with acetonitrile solution containing an internal standard. The precipitated protein was spun down in centrifuge (2000 rpm, 15 min). The compound concentration in supernatant was measured by LC/MS/MS system.
The half-life value was obtained by plotting the natural logarithm of the peak area ratio of compounds/internal standard versus time. The slope of the line of best fit through the points yields the rate of metabolism (k). This was converted to a half-life value using following equations:
Exemplary compounds of the invention were tested (1 μM), and were incubated with 3.3 mM MgCl2 and 0.78 mg/mL HLM (HL101) in 100 mM potassium phosphate buffer (pH 7.4) at 37° C. on the 96-deep well plate. The reaction mixture was split into two groups, a non-P450 and a P450 group. NADPH was only added to the reaction mixture of the P450 group. An aliquot of samples of the P450 group was collected at 0, 10, 30, and 60 minute time points, where the 0 minute time point indicated the time when NADPH was added into the reaction mixture of the P450 group. An aliquot of samples of the non-P450 group was collected at −10 and 65 minute time points. Collected aliquots were extracted with an acetonitrile solution containing an internal standard. The precipitated protein was spun down in a centrifuge (2000 rpm, 15 rain). The compound concentration in supernatant was measured by LC/MS/MS system. The half-life value (T1/2) was obtained by plotting the natural logarithm of the peak area ratio of compounds/internal standard versus time. The slope of the line of best fit through the points yields the rate of metabolism (k). This was converted to a half-life value using following equations: Half-life=ln 2/k.

[2] = molecular target: VR1 (Homo sapiens, UniProt Q8NER1); experiment: Calcium uptake assay, low pH (proton) stimulus; format: cell-based; parameters: expressed in transfected cells; host or cells: T-REx HEK 293 (Invitrogen), pcDNA5/TO vector; conditions: HEK293, low pH agonist, HEK 293 cells expressing hVR1; for inhibition at 0.3 µM: 0.3 μM compound, read-out: Low pH % Inhib. @ 0.3 μM
Chain of VR1 (Q8NER1 whole entry): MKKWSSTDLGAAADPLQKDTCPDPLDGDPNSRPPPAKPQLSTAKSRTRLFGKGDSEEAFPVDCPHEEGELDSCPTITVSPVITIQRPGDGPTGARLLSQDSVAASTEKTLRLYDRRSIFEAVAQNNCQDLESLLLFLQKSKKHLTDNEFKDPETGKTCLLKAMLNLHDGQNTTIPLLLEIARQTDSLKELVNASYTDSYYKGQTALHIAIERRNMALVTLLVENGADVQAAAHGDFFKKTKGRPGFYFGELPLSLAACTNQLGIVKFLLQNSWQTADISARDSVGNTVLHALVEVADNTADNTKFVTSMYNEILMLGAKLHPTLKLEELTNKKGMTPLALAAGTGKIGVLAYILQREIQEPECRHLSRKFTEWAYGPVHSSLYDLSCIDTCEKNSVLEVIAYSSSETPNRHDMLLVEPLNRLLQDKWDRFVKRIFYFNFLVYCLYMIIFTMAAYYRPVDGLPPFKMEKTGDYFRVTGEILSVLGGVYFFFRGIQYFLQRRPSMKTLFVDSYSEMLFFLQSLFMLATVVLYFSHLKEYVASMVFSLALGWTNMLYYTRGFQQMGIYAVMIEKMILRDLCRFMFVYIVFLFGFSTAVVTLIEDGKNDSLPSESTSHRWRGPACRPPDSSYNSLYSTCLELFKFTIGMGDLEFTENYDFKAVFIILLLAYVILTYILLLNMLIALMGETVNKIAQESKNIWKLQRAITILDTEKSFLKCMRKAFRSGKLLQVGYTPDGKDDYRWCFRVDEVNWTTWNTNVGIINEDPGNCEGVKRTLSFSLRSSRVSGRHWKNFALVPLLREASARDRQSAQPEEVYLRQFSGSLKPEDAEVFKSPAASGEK

| SMILES | half-life at 1 μM [1] | inhibition at 0.3 µM [2] | also measured |
| --- | --- | --- | --- |
| CC(C)(C)C#Cc1ccc(C(=O)Nc2ccc3c(c2)OCCO3)cn1 [Compound 22] | 70.8 min | 106% | – |
| CC(C)(C)C#Cc1ccc(C(=O)Nc2cccc3cnccc23)cc1 [Compound 31] | 24 min | 108% | – |
| O=C(Nc1ccc2c(c1)OCCO2)c1ccc(/C=C/C(F)(F)F)cc1 [Compound 34] | 69 min | 97% | – |
| O=C(Nc1cnc2ccccc2c1)c1ccc(/C=C/C(F)(F)F)cc1 [Compound 36] | 103 min | 54% | – |
| O=C(Nc1cnc2ccccc2c1)c1ccc(C#CC(F)(F)F)cc1 [Compound 46] | 1.2 min | – | – |
| O=C(Nc1cccc2cnccc12)c1ccc(C#CC2CC2)cc1 [Compound 48] | 19.8 min | 99% | – |
| Cc1nc2cc(NC(=O)c3ccc(C#CC(F)(F)F)cc3)ccc2s1 [Compound 52] | 1.8 min | 101% | – |
| CC(C)(C)C#Cc1ccc(C(=O)Nc2cccc3cnccc23)cc1OCCN1CCOCC1 [Compound 60] | – | – | Half Life [1]: 21 min |
| O=C(Nc1ccc2c(c1)OCCN2)c1ccc(/C=C/C(F)(F)F)cc1 [Compound 63] | – | – | Half Life [1]: 24 min |
| CCOc1cc(C(=O)Nc2cccc3cnccc23)ccc1C#CC(C)(C)C [Compound 65] | 25.2 min | 109% | – |
| CN1CCCc2ccc(NC(=O)c3ccc(C#CC(C)(C)C)cc3)cc21 [Compound 74] | 73.2 min | 119% | – |
| CN1CCCc2ccc(NC(=O)c3ccc(/C=C/C(F)(F)F)cc3)cc21 [Compound 79] | 79.8 min | 98% | – |
| C/C(=C\c1ccc(C(=O)Nc2cccc3cnccc23)cc1)C(F)(F)F [Compound 89] | 31.8 min | 92% | – |
| C/C(=C\c1ccc(C(=O)Nc2ccc3c(c2)OCCN3)cc1)C(F)(F)F [Compound 93] | 39 min | 105% | – |
| O=C(Nc1ccc2c(c1)OCCN2)c1ccc(C#CC2CC2)c(OCC2CC2)c1 [Compound 94] | 28.8 min | 85% | – |
| CC(C)(C)C#Cc1ncc(C(=O)Nc2ccc3c(c2)OCCN3)cn1 [Compound 95] | 18 min | 102% | – |
| O=C(Nc1ccc2c(c1)OC[C@H](CO)O2)c1ccc(C#CC2CC2)cc1 [Compound 103] | 18.6 min | 92% | – |
| O=C(Nc1ccc2c(c1)OC[C@@H](CO)O2)c1ccc(C#CC2CC2)cc1 [Compound 104] | 16.8 min | 91% | – |
| O=C(Nc1ccc2c(c1)OCC(CO)O2)c1ccc(C#CC2CCCC2)cc1 (stereo not shown) [Compound 112] | 48 min | 88% | – |
| COc1cc(/C=C/C(F)(F)F)ccc1C(=O)Nc1ccc2c(c1)OCCN2 [Compound 122] | 75 min | 19% | – |
| COc1cc(/C=C/C(F)(F)F)ccc1C(=O)Nc1ccc2c(c1)OCCO2 [Compound 123] | 113 min | 19% | – |

| SMILES | half-life at 1 μM [1] | inhibition at 0.3 µM [2] | also measured |
| --- | --- | --- | --- |
| O=C(Nc1ccc2c(c1)OCC(CO)O2)c1ccc(C#CC2CC2)cc1F (stereo not shown) [Compound 150] | – | 75% | – |
| Cc1cc(C#CC2CC2)ccc1C(=O)Nc1ccc2c(c1)OCC(CO)O2 (stereo not shown) [Compound 151] | – | 108% | – |
| Cc1cc(C#CC2CC2)ccc1C(=O)Nc1ccc2c(c1)OCCO2 [Compound 152] | – | 73% | – |
| Cc1cc(C#CC2CC2)ccc1C(=O)Nc1ccc2c(c1)OCCN2 [Compound 153] | – | 104% | – |
| CC(C)(C)C#Cc1ccc(C(=O)Nc2ccc3c(c2)OCC(CO)O3)c(F)c1 (stereo not shown) [Compound 154] | – | 95% | – |
| CC(C)(C)C#Cc1ccc(C(=O)Nc2ccc3c(c2)OCCO3)c(F)c1 [Compound 155] | – | 95% | – |
| O=C(Nc1ccc2c(c1)OCC(CO)O2)c1ccc(C#CC2CC2)cc1Cl (stereo not shown) [Compound 156] | – | 102% | – |
| CC(C)(C)C#Cc1ccc(C(=O)Nc2cccc3cnccc23)c(Cl)c1 [Compound 161] | – | 95% | – |
| Cc1nc2cc(NC(=O)c3ccc(C#CC(C)(C)C)cc3Cl)ccc2s1 [Compound 165] | – | 107% | – |
| CC(C)(C)C#Cc1cc(F)c(C(=O)Nc2ccc3c(c2)OCC(CO)N3)c(F)c1 (stereo not shown) [Compound 168] | – | 104% | – |
| O=C(Nc1ccc2c(c1)OC[C@@H](CO)N2)c1ccc(C#CC2CC2)cc1F [Compound 169] | – | 112% | – |
| O=C(Nc1ccc2c(c1)OC[C@H](CO)N2)c1ccc(C#CC2CC2)cc1F [Compound 171] | – | 112% | – |
| Cc1nc2cc(NC(=O)c3ccc(C#CC(C)(C)C)cc3F)ccc2s1 [Compound 173] | – | 109% | – |
| CC(C)(C)C#Cc1ccc(C(=O)Nc2cnc3ccccc3c2)c(F)c1 [Compound 174] | – | 97% | – |
| CC(C)(C)C#Cc1ccc(C(=O)Nc2cccc3cnccc23)c(F)c1 [Compound 175] | – | 95% | – |
| Cc1nc2cc(NC(=O)c3ccc(/C=C/C(F)(F)F)cc3F)ccc2s1 [Compound 177] | – | 85% | – |
| O=C(Nc1cnc2ccccc2c1)c1ccc(/C=C/C(F)(F)F)cc1F [Compound 178] | – | 9% | – |
| CC(C)(C)C#Cc1cc(F)c(C(=O)Nc2cnc3ccccc3c2)c(F)c1 [Compound 179] | – | 100% | – |
| Cc1nc2cc(NC(=O)c3c(F)cc(C#CC(C)(C)C)cc3F)ccc2s1 [Compound 180] | – | 99% | – |
| CC(C)(C)C#Cc1ccc(C(=O)Nc2ccc3c(c2)OC[C@H](CO)N3)c(Cl)c1 [Compound 182] | – | 103% | – |
| CC(C)(C)C#Cc1ccc(C(=O)Nc2ccc3c(c2)OC[C@@H](CO)N3)c(Cl)c1 [Compound 183] | – | 98% | – |

| SMILES | half-life at 1 μM [1] | inhibition at 0.3 µM [2] | also measured |
| --- | --- | --- | --- |
| Cc1cc(/C=C/C(F)(F)F)ccc1C(=O)Nc1ccc2c(c1)OCC(CO)O2 (stereo not shown) [Compound 185] | – | 92% | – |
| Cc1cc(C#CC(C)(C)C)ccc1C(=O)Nc1ccc2c(c1)OCC(CO)O2 (stereo not shown) [Compound 186] | – | 91% | – |
| Cc1cc(/C=C/C(F)(F)F)ccc1C(=O)Nc1ccc2c(c1)OCC(O)CN2 (stereo not shown) [Compound 189] | – | 87% | – |
| Cc1cc(/C=C/C(F)(F)F)ccc1C(=O)Nc1ccc2c(c1)OCCO2 [Compound 190] | – | 87% | – |
| CC(C)(C)C#Cc1cc(Cl)c(C(=O)Nc2ccc3c(c2)OCC(CO)O3)cc1F (stereo not shown) [Compound 191] | – | 83% | – |
| Cc1cc2c(NC(=O)c3ccc(/C=C/C(F)(F)F)cc3C)cccc2cn1 [Compound 196] | – | 86% | – |
| Cc1cc(C#CC(C)(C)C)ccc1C(=O)Nc1cccc2c(Cl)cccc12 [Compound 199] | – | 67% | – |
| Cc1cc(/C=C/C(F)(F)F)ccc1C(=O)Nc1cccc2c(Cl)nccc12 [Compound 200] | – | 55% | – |
| Cc1cc(C#CC(C)(C)C)ccc1C(=O)Nc1cnc2[nH]ccc2c1 [Compound 212] | – | 97% | – |
| Cc1cc(C#CC(C)(C)C)ccc1C(=O)Nc1ccc2c(c1)C(=O)NC2=O [Compound 213] | – | 88% | – |
| Cc1nc2cc(NC(=O)c3ccc(C#CC(C)(C)C)cc3C)ccc2[nH]1 [Compound 215] | – | 86% | – |
| Cc1cc(C#CC(C)(C)C)ccc1C(=O)Nc1cnc2cc(CO)ccc2c1 [Compound 216] | – | 31% | – |
| Cc1cc(C#CC(C)(C)C)ccc1C(=O)Nc1ccc2[nH]c(=O)oc2c1 [Compound 217] | – | 59% | – |
| Cc1cc(C#CC(C)(C)C)ccc1C(=O)Nc1cnc2[nH]c(CO)nc2c1 [Compound 218] | – | 6% | – |
| Cc1cc(/C=C/C(F)(F)F)ccc1C(=O)Nc1ccc2ncccc2c1 [Compound 222] | – | 82% | – |
| Cc1cc(/C=C/C(F)(F)F)ccc1C(=O)Nc1ccc2cccnc2c1 [Compound 224] | – | 82% | – |
| Cc1cc(/C=C/C(F)(F)F)ccc1C(=O)Nc1cnc2c(c1)CNCC2 [Compound 229] | – | 54% | – |
| Cc1cc(/C=C/C(F)(F)F)ccc1C(=O)Nc1cnc2[nH]ccc2c1 [Compound 230] | – | 99% | – |
| COc1cc(NC(=O)c2ccc(/C=C/C(C)C)cc2)cc(C(F)(F)F)c1 [Compound 240] | – | – | inhibition at 1 µM ([2]; 1 μM compound, read-out: Low pH % Inhib. (at 1 μM)): 75% |
